Results as given in publication PMC8777785, “Antimicrobial Activity of Snake β-Defensins and Derived Peptides” (Toxins, 2021).
Converted amounts (≈) assume the structure as drawn. Residues, ends and D or L forms follow the SMILES beside them.

Experiments:
Micrococcus luteus A270 = test: Microbroth dilution assay, MIC; format: cell-based; details: short derived peptides, 2.75 to 700 µg/mL, overnight 37 °C, read at 600 nm, three independent experiments
Method: (§1) The β-defensins were tested using a microbroth dilution assay. It consists of incubating the bacteria (4.105 colony-forming unit—CFU/mL) and the peptide (from 1 to 512 µg/mL) in liquid broth. After the incubation at 37 °C during the night, the bacterial growth was detected by spectrophotometry at 600 nm. If the measure is similar to the broth, it […]. […] The β-defensins were tested against B. jararaca oral flora because it would be of biological and medical interest. In addition, we tested on E. coli ATCC 25922 and M. luteus that are common Gram-negative and Gram-positive bacteria used in antibacterial tests.
(§2) The antibacterial activity of the alkylated peptides was tested against Gram-negative (G−) bacteria (Klebsiella pneumonia, Serratia marcescens, Morganella morganii, Providencia rettgeri, Citrobacter freundii, Escherichia coli ATCC 25922 and Gram-positive (G+) bacteria (Micrococcus luteus A270 and Staphylococcus aureus) using microbroth assay. In a 96-well plate, 90 µL of 10% tryptone soy broth (TSB) with 4 × 10^5 colony-forming unit (CFU/mL) were mixed with serial twofold dilutions of β-defensins duplicate in concentrations from 512 to 1 µg/mL. The derived peptides coded as PS1, PS2, PS3, PS5, and PS6 (Table 1) were tested against these bacteria in serial twofold dilutions with concentrations bellow 700 µg/mL. After overnight incubation at 37 °C, the turbidity of the bacterial culture was read at 600 nm (Epoch microplate reader, Biotek). The minimal inhibitory concentration (MIC) of each peptide was determined as the lowest concentration that results in no visible bacterial growth. The MIC resulted from three independent experiments. The bacteria K. pneumonia, S. marcescens, M. morganii, P. rettgeri, C. freundii, M. luteus A270 and S. aureus were isolated from Bothrops jararaca buccal flora and kindly provided by Dr. Márcia R. Franzolin (Laboratory of Bacteriology—Instituto Butantan). M. luteus was kindly provided by Dr. Pedro I. da Silva Jr. (Laboratory of Applied Toxinology—Instituto Butantan).

Staphylococcus aureus = test: Microbroth dilution assay, MIC; format: cell-based; details: short derived peptides, 2.75 to 700 µg/mL, overnight 37 °C, read at 600 nm, three independent experiments
Method: as §1, §2

Citrobacter freundii = test: Microbroth dilution assay, MIC; format: cell-based; details: short derived peptides, 2.75 to 700 µg/mL, overnight 37 °C, read at 600 nm, three independent experiments
Method: as §1, §2

[1] = test system: Escherichia coli ATCC 25922; test: Microbroth dilution assay, MIC; format: cell-based; details: short derived peptides, 2.75 to 700 µg/mL, overnight 37 °C, read at 600 nm, three independent experiments
Method: as §1, §2

[2] = test system: Trichophyton rubrum (IOC 4527); test: Resazurin microtiter assay plate, antifungal MIC90; format: cell-based; details: resazurin colour change, RPMI 1640, 1 to 250 μM, 28 °C, 24–72 h; three independent experiments
Method: (§3) The derived peptides were also tested against fungi species using the classical resazurin microtiter assay plate method. It is based on the color change of the rezazurin dye that in blue indicates the absence of growth in at least 90%, and pink refers to microorganism growth. MIC is determined as the minimal concentration of the sample that can prevent the color change from blue to pink and refers to the inhibition of 90% of microorganisms.
(§4) The antifungal activity was evaluated by the microdilution assay as previously described on clinical strains of Candida albicans (IOC 4525), Cryptococcus neoformans (IOC 4528), Trichophyton rubrum (IOC 4527) and Aspergillus fumigatus (IOC 4526). The fungi were cultivated in potato dextrose agar at 28 °C according to the Clinical and Laboratory Standards Institute recommendations. Fungal suspensions were prepared in RPMI 1640 culture media; the CFU/mL was adjusted to 0.5–2.5 × 10^3 for yeasts (C. albicans and C. neoformans) and 0.4–5 × 10^4 CFU/mL for filamentous fungi (T. rubrum e A. fumigatus), by comparison with a standard curve previously stablished in our laboratory.
(§5) The peptides PS1, PS2, PS, PS3, PS4, PS5 and PS6 at 1 mM in acetic acid at 0.01% were diluted in RPMI 1640 culture media at concentrations ranging from 1 to 250 μM. Amphotericin B (AMB) at concentrations below 15 μg/mL (16 μM) and acetic acid from 0.0002 to 0.0025% was used as control.
(§6) The fungi suspensions were added to a 96 well plate (100 µL/well) and the samples (100 µL) in different concentrations were added to each well. The plate was incubated at 28 °C for 24–72 h, and 24 h before the end of the assay 25 µL of the rezazurin dye at 0.02% were added to each well. The minimal inhibitory concentration (MIC90) was defined as the lowest concentration that prevents the rezazurin’s change in color from blue to pink due to the inhibition of at least 90% of the microorganism’s growth. The assays were performed in three independent experiments.

[3] = test system: Aspergillus fumigatus (IOC 4526); test: Resazurin microtiter assay plate, antifungal MIC90; format: cell-based; details: resazurin colour change, RPMI 1640, 1 to 250 μM, 28 °C, 24–72 h; three independent experiments
Method: as §3, §4, §5, §6

[4] = test system: Candida albicans (IOC 4525); test: Resazurin microtiter assay plate, antifungal MIC90; format: cell-based; details: resazurin colour change, RPMI 1640, 1 to 250 μM, 28 °C, 24–72 h; three independent experiments
Method: as §3, §4, §5, §6

[5] = test system: Cryptococcus neoformans (IOC 4528); test: Resazurin microtiter assay plate, antifungal MIC90; format: cell-based; details: resazurin colour change, RPMI 1640, 1 to 250 μM, 28 °C, 24–72 h; three independent experiments
Method: as §3, §4, §5, §6

Klebsiella pneumonia = test: Microbroth dilution assay, MIC; format: cell-based, Klebsiella pneumoniae; details: short derived peptides, 2.75 to 700 µg/mL, overnight 37 °C, read at 600 nm, three independent experiments
Method: as §1, §2

Structure (SMILES)	MIC, M. luteus (Micrococcus luteus A270) [µM]	MIC, S. aureus (Staphylococcus aureus) [µM]	MIC, C. freundii (Citrobacter freundii) [µM]	MIC, E. coli [1] [µM]	MIC90, Trichophyton rubrum [2] [µM]	MIC90, Aspergillus fumigatus [3] [µM]	MIC90, Candida albicans [4] [µM]	MIC90, Cryptococcus neoformans [5] [µM]	MIC, K. pneumoniae (Klebsiella pneumonia) [µM]
N=C(N)NCCC[C@H](NC(=O)CNC(=O)[C@@H]1CCCN1C(=O)CNC(=O)[C@@H](N)CO)C(=O)N[C@@H](CCCNC(=N)N)C(=O)N[C@@H](CO)C(=O)N[C@@H](CO)C(=O)N[C@@H](CCCNC(=N)N)C(=O)N[C@@H](CCCNC(=N)N)C(=O)N[C@@H](CCCNC(=N)N)C(=O)N[C@@H](Cc1c[nH]c2ccccc12)C(=O)N[C@@H](CCCCN)C(=O)O [PS5] (H-SGPGRRSSRRRWK-OH)	13.9 (≈ 22 µg/mL)	27.7 (≈ 43.9 µg/mL)	110 (≈ 174 µg/mL)	55.2 (≈ 87.5 µg/mL)	>250	>250	>250	>250	27.7 (≈ 43.9 µg/mL)
CSCC[C@H](NC(=O)[C@H](CCC(N)=O)NC(=O)[C@@H](N)CO)C(=O)NCC(=O)N[C@@H](CCC(N)=O)C(=O)N[C@@H](CCSC)C(=O)N[C@@H](CO)C(=O)N[C@@H](CO)C(=O)N[C@@H](CCCNC(=N)N)C(=O)N[C@@H](CCCNC(=N)N)C(=O)N[C@@H](CCCNC(=N)N)C(=O)N[C@@H](Cc1ccccc1)C(=O)NCC(=O)N[C@@H](CCCCN)C(=O)O [PS4] (H-SQMGQMSSRRRFGK-OH)	26.6 (≈ 44 µg/mL)	>423	>423	>423	>250	>250	>250	>250	>423
